Measured values from ChEMBL document CHEMBL4673380, “Novel Pyrimidinones as SHP2 Antagonists for Treating Cancer” (ACS Med Chem Lett, 2021).

Target: T1, Tyrosine-protein phosphatase non-receptor type 11 (Homo sapiens, UniProt Q06124)
T1 sequence (Q06124 whole entry): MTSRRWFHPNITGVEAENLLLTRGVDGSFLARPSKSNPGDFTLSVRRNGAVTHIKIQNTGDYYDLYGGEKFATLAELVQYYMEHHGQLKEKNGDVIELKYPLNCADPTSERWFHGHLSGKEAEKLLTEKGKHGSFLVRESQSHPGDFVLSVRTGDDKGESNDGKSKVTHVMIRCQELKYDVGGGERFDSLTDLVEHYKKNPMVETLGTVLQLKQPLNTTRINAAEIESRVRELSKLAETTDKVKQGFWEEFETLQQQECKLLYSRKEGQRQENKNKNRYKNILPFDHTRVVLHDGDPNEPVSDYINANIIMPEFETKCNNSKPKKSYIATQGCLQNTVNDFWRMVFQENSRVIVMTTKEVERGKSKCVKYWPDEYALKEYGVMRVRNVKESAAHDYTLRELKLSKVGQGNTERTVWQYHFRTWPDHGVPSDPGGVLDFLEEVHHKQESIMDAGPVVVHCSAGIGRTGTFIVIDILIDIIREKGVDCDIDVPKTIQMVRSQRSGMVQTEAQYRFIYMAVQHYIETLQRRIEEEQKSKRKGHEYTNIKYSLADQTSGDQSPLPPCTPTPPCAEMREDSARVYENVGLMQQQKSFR
Assay: Antagonist activity at SHP2 in human KYSE520 cells assessed as inhibition of ERK1/2 phosphorylation incubated for 2 hrs
Type: cell-based

With `Cc1c(N2CCC3(CC2)Cc2ccccc2[C@H]3N)nc(C)n(-c2ccc(F)c(Cl)c2Cl)c1=O` as the molecule, how does the IC50 read?
The IC50 was 4 nM.

With `Cc1c(N2CCC3(CC2)Oc2ccccc2[C@H]3N)nc(C)n(-c2cccc(Cl)c2Cl)c1=O` as the molecule, how does the IC50 read?
The IC50 was 6.6 nM.

`Cc1nc(N2CCC3(CC2)Cc2ccccc2[C@H]3N)cc(=O)n1-c1cccc(Cl)c1Cl` was tested. Which IC50 did it give?
The IC50 was 5 nM.

Which IC50 does the source give for `Cc1c(F)ccc(-n2c(C)nc(N3CCC4(CC3)Cc3ccccc3[C@H]4N)c(C)c2=O)c1Cl` here?
Its IC50 is 7 nM.

For `Cc1c(N2CCC3(CC2)Cc2ncccc2[C@@H]3N)nc(C)n(-c2cccc(Cl)c2Cl)c1=O`, which IC50 is on record?
Its IC50 is 5 nM.

With `Cc1c(N2CCC3(CC2)Cc2ccccc2[C@H]3N)nc(C)n(-c2cccc(Cl)c2Cl)c1=O` as the molecule, how does the IC50 read?
The IC50 was 2 nM.

Target: T1, Tyrosine-protein phosphatase non-receptor type 11
Assay: Antagonist activity at recombinant human N-terminal His6-tagged full length SHP2 expressed in Escherichia coli using DiFMUP as substrate measured after 60 mins in presence of IRS1-2pY peptide by fluorescence assay

How did the IC50 turn out when `Cc1c(N2CCC3(CC2)Cc2ncccc2[C@@H]3N)nc(C)n(-c2cccc(Cl)c2Cl)c1=O` was run?
The IC50 was 1 nM.
